Results reported in ChEMBL document CHEMBL1123163, “Absolute configuration of (-)-5-benzoyl-1,2-dihydro-3H-pyrrolo[1,2-alpha]pyrrole-1-carboxylic acid, the active enantiomer of ketorolac” (1986).

Assays:
Rattus norvegicus = assay: Antiinflammatory activity using carrageenan rat paw edema assay along with 15 mg/kg of phenylbutazone; assay type: functional
Mus musculus = assay: Analgesic activity using mouse phenylquinone writhing assay along with 70 mg/kg of aspirin; assay type: functional

O=C(c1ccccc1)C1CCC2[C@@H](C(=O)O)CCN12 (stereo partly specified)
ED50 (Rattus norvegicus): 170 mg/kg | ED50 (Mus musculus): 699 mg/kg

O=C(c1ccccc1)C1CCC2[C@H](C(=O)O)CCN12 (stereo partly specified)
ED50 (Rattus norvegicus): 3 mg/kg | ED50 (Mus musculus): < 3 mg/kg

O=C(O)C1CCN2C(C(=O)c3ccccc3)CCC12 (racemic)
ED50 (Rattus norvegicus): 96 mg/kg | ED50 (Mus musculus): 399 mg/kg
